From patent US20230026616A1, “PYRIMIDOIMIDAZOLE COMPOUNDS USED AS DNA-PK INHIBITORS” (MEDSHINE DISCOVERY INC., priority 2019, published 2023)
Where two headings read alike, the source gives them in different places.

Experiments:
Human DNA-PK = molecular target: T1, Human DNA-PK (Homo sapiens, UniProt P78527); experiment: DNA-dependent protein kinase (DNA-PK) inhibitory activity screening (Eurofins, HTRF); format: biochemical; settings: ATP: 10 μM; read-out: DNA-PK kinase inhibition IC50
T1 construct: purchased Eurofins (Eurofins Pharma Discovery Service)
Description: Experimental Embodiment 1: DNA-Dependent Protein Kinase (DNA-PK) Inhibitory Activity Screening Experiment
This experiment was tested in the Eurofins
Human DNA-PK; Mg/ATP; GST-cMyc-p53; EDTA; Ser15 antibody; ATP: 10 μM.
Experimental Method (Eurofins Pharma Discovery Service):
DNA-PK (h) was incubated in assay buffer containing 50 nM GST-cMyc-p53 and Mg/ATP (according to the required concentration). The reaction was initiated by adding Mg/ATP mixture. After 30 minutes of incubation at room temperature, the reaction was stopped by adding a stop solution containing EDTA. Finally, detection buffer (containing labeled anti-GST monoclonal antibody and europium-labeled anti-Ser15 antibody against phosphorylated p53) was added. The plate was then read in time-resolved fluorescence mode, and the homogeneous time-resolved fluorescence (HTRF) signal was determined according to the formula HTRF=10000×(Em665 nm/Em620 nm).

[1] = Pharmacokinetic evaluation (1): cassette PK in Balb/c male mice, plasma; format: in vivo; settings: for C0 / clearance / Vd / AUC0-last / T1/2 / Tlast / Cmax / Tmax / AUC(0-t) / half-life: mouse plasma; for Vd: read-out: Vdss; for F: mouse, PO 2 mg/kg vs IV 0.4 mg/kg
Description: Test compounds were mixed with 10% dimethyl sulfoxide/50% polyethylene glycol 200/40% water (compounds 1, 4, 10, 17) or 20% N,N-dimethylacetamide/80% water (compound 5), vortexed and sonicated to prepare a nearly clear solution of 0.08 mg/mL (compounds 1, 4, 10, 17) or 0.50 mg/mL (compound 5), then filtered through a microporous membrane for next step. Balb/c male mice of 18 to 20 grams were selected and administered intravenously with the candidate compound solution at a dose of 0.4 (compounds 1, 4, 10, 17) or 1 mg/kg (compound 5). Test compounds were mixed with 10% dimethyl sulfoxide/50% polyethylene glycol 200/40% water (compounds 1, 4, 10, 17) or 20%-hydroxypropyl-β-cyclodextrin (compound 5), vortexed and sonicated to prepare a nearly clear solution of 0.2 mg/mL (compounds 1, 4, 10, 17) or 1 mg/mL (compound 5), then filtered through a microporous membrane for next step. Balb/c male mice of 18 to 20 grams were selected and orally administered with the candidate compound solution at a dose of 2 (compounds 1, 4, 10, 17) or 5 mg/kg (compound 5). Whole blood was collected for a certain period of time, and plasma was prepared, then drug concentration was detected by LC-MS/MS method, and pharmacokinetic parameters were calculated by Phoenix WinNonlin software (Pharsight, USA).
IV: intravenous injection; PO: oral; C0: instantaneous […] concentration after intravenous injection; Cmax: highest plasma concentration after administration; Tmax: time required to reach peak of drug concentration after administration; T1/2: time required for the plasma drug concentration to decrease by half, Vdss: apparent volume of distribution, refers to the proportional constant of the drug dose in vivo and the blood drug concentration when the drug reaches a dynamic equilibrium in vivo. Cl: clearance rate, refers to the […] cleared from the body per unit time; Tlast: time at the last detection point; AUC0-last: area under the drug-time curve, refers to the area covered by the plasma concentration curve and the time axis; F: a measure of the speed and degree of drug absorption into the blood circulation, which is an important indicator for evaluating the degree of drug absorption.

[2] = male, Balb/c, PO 2 mg/kg, read-out: Tmax

Cc1cc2ncnn2cc1Nc1ncc2c(n1)n(N1CCOCC1)c(=O)n2C [Compound 1] gave an IC50 (Human DNA-PK) of 2 nM, a C0 ([1]; male, Balb/c, IV 0.4 mg/kg) of 959 nM and a clearance ([1]; male, Balb/c, IV 0.4 mg/kg) of 37.7 mL/min/kg. The Vd ([1]; male, Balb/c, IV 0.4 mg/kg) was 1.51 L/kg, the AUC0-last ([1]; IV 0.4 mg/kg) was 426 nM·h and the T1/2 ([1]; IV 0.4 mg/kg) was 35.9 min. It also gave a Tlast ([1]; IV 0.4 mg/kg) of 4 h, an AUC0-last ([1]; PO 2 mg/kg) of 2497 nM·h and a Cmax ([1]; PO 2 mg/kg) of 1420 nM. The T1/2 ([1]; PO 2 mg/kg) was 50.5 min, the Tlast ([1]; PO 2 mg/kg) was 8 h and the Tmax ([1]; PO 2 mg/kg) was 30 min. For the same molecule, the F [1] was 96.4%.

In the case of Cc1cc2ncnn2cc1Nc1ncc2c(n1)n(N1C3CCC1COC3)c(=O)n2C [Compound 4], the IC50 (Human DNA-PK) is reported as 1 nM, the AUC(0-t) ([1]; male, Balb/c, IV 0.4 mg/kg) is reported as 0.286 µM·h and the C0 ([1]; male, Balb/c, IV 0.4 mg/kg) is reported as 919 nM. The clearance ([1]; male, Balb/c, IV 0.4 mg/kg) was 57 mL/min/kg, the half-life ([1]; male, Balb/c, IV 0.4 mg/kg) was 14.4 min and the Vd ([1]; male, Balb/c, IV 0.4 mg/kg) was 1.08 L/kg. For the same molecule, the AUC(0-t) ([1]; male, Balb/c, PO 2 mg/kg) was 1.74 µM·h, the Cmax ([1]; male, Balb/c, PO 2 mg/kg) was 1600 nM and the half-life ([1]; male, Balb/c, PO 2 mg/kg) was 36.5 min. For the same molecule, the Tmax [1, 2] was 15 min, the Tlast ([1]; IV 0.4 mg/kg) was 2 h and the Tlast ([1]; PO 2 mg/kg) was 4 h. The F [1] was 123%.

Molecule Cc1cc2ncnn2cc1Nc1ncc2c(n1)n(N1CC3CC(C1)O3)c(=O)n2C [Compound 6] has an IC50 (Human DNA-PK) of 1 nM.

Work on Cc1cc2ncnn2cc1Nc1ncc2c(n1)n(N1CCC(F)(F)CC1)c(=O)n2C [Compound 7] yielded an IC50 (Human DNA-PK) of 2 nM.

Cc1cc2ncnn2cc1Nc1ncc2c(n1)n(N1CCOC3(CC3)C1)c(=O)n2C [Compound 10] gave an IC50 (Human DNA-PK) of 2.5 nM, an AUC(0-t) ([1]; male, Balb/c, IV 0.4 mg/kg) of 0.64 µM·h and a C0 ([1]; male, Balb/c, IV 0.4 mg/kg) of 1120 nM. For the same molecule, the clearance ([1]; male, Balb/c, IV 0.4 mg/kg) was 25.4 mL/min/kg, the half-life ([1]; male, Balb/c, IV 0.4 mg/kg) was 35.5 min and the Vd ([1]; male, Balb/c, IV 0.4 mg/kg) was 0.883 L/kg. For the same molecule, the AUC(0-t) ([1]; male, Balb/c, PO 2 mg/kg) was 3.83 µM·h, the Cmax ([1]; male, Balb/c, PO 2 mg/kg) was 2060 nM and the half-life ([1]; male, Balb/c, PO 2 mg/kg) was 73.2 min. The Tmax [1, 2] was 30 min, the Tlast ([1]; IV 0.4 mg/kg) was 4 h and the Tlast ([1]; PO 2 mg/kg) was 8 h. For the same molecule, the F [1] was 120%.

Work on Cc1cc2ncnn2cc1Nc1ncc2c(n1)n(N1CCC3(CC1)COC3)c(=O)n2C [Compound 11] yielded an IC50 (Human DNA-PK) of 5 nM.

Work on Cc1cc2ncnn2cc1Nc1ncc2c(n1)n(N1CCC3(CCO3)CC1)c(=O)n2C [Compound 12] yielded an IC50 (Human DNA-PK) of 4 nM.

Cc1cc2ncnn2cc1Nc1ncc2c(n1)n(N1CCOC3(CCC3)C1)c(=O)n2C [Compound 13] showed an IC50 (Human DNA-PK) of 2 nM.

Work on Cc1cc2ncnn2cc1Nc1ncc2c(n1)n(N1CCC(C#N)CC1)c(=O)n2C [Compound 14] yielded an IC50 (Human DNA-PK) of 5 nM.

Cc1cc2ncnn2cc1Nc1ncc2c(n1)n(N1CC3CCCC3C1)c(=O)n2C (stereo not drawn) [Compound 15] gave an IC50 (Human DNA-PK) of 1 nM.

Work on Cc1cc2ncnn2cc1Nc1ncc2c(n1)n(N1CC3CC3C1)c(=O)n2C (stereo not drawn) [Compound 16] yielded an IC50 (Human DNA-PK) of 0.5 nM.

For Cc1cc2nncn2cc1Nc1ncc2c(n1)n(N1C3CCC1COC3)c(=O)n2C [Compound 18], the IC50 (Human DNA-PK) was 0.9 nM.

Work on Cc1cc2nccn2cc1Nc1ncc2c(n1)n(N1CC3CCC(C1)O3)c(=O)n2C [Compound 19] yielded an IC50 (Human DNA-PK) of 0.6 nM.

Molecule Cc1cc2nccn2cc1Nc1ncc2c(n1)n(N1C3CCC1COC3)c(=O)n2C [Compound 20] has an IC50 (Human DNA-PK) of 0.9 nM.

Cc1cn2ncnc2cc1Nc1ncc2c(n1)n(N1CC3CCC(C1)O3)c(=O)n2C [Compound 21] showed an IC50 (Human DNA-PK) of 0.5 nM.

For Cc1cn2ncnc2cc1Nc1ncc2c(n1)n(N1C3CCC1COC3)c(=O)n2C [Compound 22], the IC50 (Human DNA-PK) was 0.4 nM.

With Cc1nc2nccn2cc1Nc1ncc2c(n1)n(N1CC3CCC(C1)O3)c(=O)n2C [Compound 23] the IC50 (Human DNA-PK) was 10 nM.

Work on Cc1nc2nccn2cc1Nc1ncc2c(n1)n(N1C3CCC1COC3)c(=O)n2C [Compound 24] yielded an IC50 (Human DNA-PK) of 68 nM.
